Test systems include UACC-62 melanoma; KM12 colon; ACHN renal; SK-MEL-5 melanoma; BT-549 breast; RPMI-8226 leukemia; SF-539 CNS; CCRF-CEM leukemia; IGROV1 ovarian; HCT-116 colon; LOX IMVI melanoma; OVCAR-5 ovarian; NCI-H460 lung; COLO 205 colon; MALME-3M melanoma; OVCAR-3 ovarian; SK-OV-3 ovarian; T-47D breast; U251 CNS; HOP-62 NSCLC.
Experiment in all cases: NCI-60 cell line screen, 48 h

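Method: 48-hour compound exposure of cells in 96-well plates, five concentrations, linear interpolation of endpoints. At the TGI there is no net growth.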 Bounds are passed on as bounds.

In the case of `CC(=O)NNc1nc(C)c(C(/C=C/c2ccc(NC(C)=O)cc2)=N/NS(=O)(=O)c2ccc(C)cc2)s1`, the TGI with UACC-62 melanoma, in the experiment with KM12 colon, with ACHN renal, with SK-MEL-5 melanoma, in the experiment on BT-549 breast and in the experiment on RPMI-8226 leukemia was over 100 µM in each case. In addition, the TGI with SF-539 CNS, in the experiment on CCRF-CEM leukemia, in the experiment on IGROV1 ovarian, in the experiment with HCT-116 colon, in the experiment with LOX IMVI melanoma and in the experiment with OVCAR-5 ovarian was over 100 µM throughout. Further, the TGI in the experiment on NCI-H460 lung, in the experiment with COLO 205 colon, with MALME-3M melanoma, in the experiment on OVCAR-3 ovarian, with SK-OV-3 ovarian and with T-47D breast was over 100 µM throughout. Further, the TGI in the experiment on U251 CNS and with HOP-62 NSCLC was over 100 µM in each case.

In the case of `N#CC(c1ccccc1)(c1ccccc1)[C@@H](c1ccccc1)[C@H](Cc1ccccc1)NS(=O)(=O)c1ccccc1`, the TGI with UACC-62 melanoma, in the experiment on KM12 colon, in the experiment with ACHN renal, with SK-MEL-5 melanoma, in the experiment with BT-549 breast and with RPMI-8226 leukemia was over 100 µM each time. The TGI in the experiment with SF-539 CNS, with CCRF-CEM leukemia, with IGROV1 ovarian, in the experiment with HCT-116 colon, in the experiment with LOX IMVI melanoma and with OVCAR-5 ovarian was over 100 µM in each case. Besides, the TGI with NCI-H460 lung, in the experiment on COLO 205 colon, in the experiment with MALME-3M melanoma, with OVCAR-3 ovarian, with SK-OV-3 ovarian and in the experiment with T-47D breast was over 100 µM throughout. The TGI in the experiment on U251 CNS and with HOP-62 NSCLC was over 100 µM each time.

For `O=C(Nc1ccc(F)cc1)c1cc2ccc(O)cc2oc1=Nc1ccccc1F`, the TGI with UACC-62 melanoma was over 100 µM; with KM12 colon, over 100 µM; in the experiment with ACHN renal, over 100 µM; in the experiment on SK-MEL-5 melanoma, 35.2 µM; with BT-549 breast, 43.5 µM; in the experiment with RPMI-8226 leukemia, over 100 µM. The TGI in the experiment on SF-539 CNS was over 100 µM; with CCRF-CEM leukemia it was over 100 µM; in the experiment on IGROV1 ovarian, 36.1 µM; in the experiment on HCT-116 colon, over 100 µM; in the experiment with LOX IMVI melanoma, 49.6 µM; in the experiment with OVCAR-5 ovarian, over 100 µM. The TGI in the experiment on NCI-H460 lung was over 100 µM; in the experiment with COLO 205 colon it was over 100 µM; with MALME-3M melanoma, over 100 µM; with OVCAR-3 ovarian, over 100 µM; with SK-OV-3 ovarian, 67.1 µM; in the experiment with T-47D breast it was over 100 µM. The TGI in the experiment with U251 CNS was 97.5 µM; in the experiment on HOP-62 NSCLC, over 100 µM.

Turning to `CC(C)(C)c1cc(C(C)(C)C)c2sc(=S)oc2c1O`, the TGI was 23.4 µM with UACC-62 melanoma; 18 µM in the experiment on KM12 colon; 20.8 µM in the experiment with ACHN renal; 21.8 µM in the experiment with SK-MEL-5 melanoma; 23.6 µM in the experiment on BT-549 breast; 33.7 µM with RPMI-8226 leukemia. For the same compound, the TGI in the experiment on SF-539 CNS was 11.1 µM; with CCRF-CEM leukemia it was over 27 µM; with IGROV1 ovarian, 24.6 µM; with HCT-116 colon it was 21 µM; in the experiment on LOX IMVI melanoma, 17.7 µM; in the experiment on OVCAR-5 ovarian, 20.2 µM. The TGI in the experiment on NCI-H460 lung is 18.2 µM; in the experiment with COLO 205 colon it was 29.6 µM; in the experiment on MALME-3M melanoma, 32.1 µM; with OVCAR-3 ovarian, 17.5 µM; in the experiment on SK-OV-3 ovarian, 32.8 µM; with T-47D breast, 20.6 µM. Further, the figures for the TGI with U251 CNS and with HOP-62 NSCLC were 18.7 µM and 31.1 µM, respectively.

For `COc1nc2c(c(=O)n1C)NC(C(O)C(O)CO)C=N2` (stereo not given), the TGI in the experiment with UACC-62 melanoma, in the experiment with KM12 colon, in the experiment on ACHN renal, in the experiment on SK-MEL-5 melanoma, in the experiment with BT-549 breast and with RPMI-8226 leukemia was over 10 µM each time. Also, the TGI in the experiment on SF-539 CNS, in the experiment with CCRF-CEM leukemia, in the experiment on IGROV1 ovarian, with HCT-116 colon, with LOX IMVI melanoma and in the experiment with OVCAR-5 ovarian was over 10 µM each time. Besides, the TGI in the experiment on NCI-H460 lung, with COLO 205 colon, in the experiment with MALME-3M melanoma, in the experiment on OVCAR-3 ovarian, in the experiment with SK-OV-3 ovarian and with T-47D breast was over 10 µM in each case. The TGI in the experiment on U251 CNS and in the experiment on HOP-62 NSCLC was over 10 µM in each case.

Turning to `O=C(O)c1cc(N(Cc2ccccc2O)Cc2cc(O)ccc2O)ccc1O`, the TGI in the experiment on UACC-62 melanoma, in the experiment with KM12 colon, in the experiment with ACHN renal, in the experiment with SK-MEL-5 melanoma, with BT-549 breast and with RPMI-8226 leukemia was over 100 µM in each case. In addition, the TGI in the experiment with SF-539 CNS, in the experiment with CCRF-CEM leukemia, in the experiment with IGROV1 ovarian, with HCT-116 colon, with LOX IMVI melanoma and in the experiment with OVCAR-5 ovarian was over 100 µM throughout. Further, the TGI with NCI-H460 lung, in the experiment with COLO 205 colon, with MALME-3M melanoma, in the experiment with OVCAR-3 ovarian, in the experiment with SK-OV-3 ovarian and in the experiment with T-47D breast was over 100 µM each time. For the same compound, the TGI with U251 CNS and with HOP-62 NSCLC was over 100 µM in each case.

Regarding `O=[N+]([O-])c1ccc(N2N=C(c3ccc4ccccc4c3O)CC2c2ccc(Cl)cc2Cl)c([N+](=O)[O-])c1` (stereo not given), the TGI is over 100 µM with UACC-62 melanoma; over 100 µM in the experiment with KM12 colon; over 100 µM with ACHN renal; over 100 µM with SK-MEL-5 melanoma; over 100 µM in the experiment with BT-549 breast; 41.4 µM in the experiment on RPMI-8226 leukemia. The TGI in the experiment with SF-539 CNS was 70.6 µM; in the experiment on CCRF-CEM leukemia it was 35.5 µM; with IGROV1 ovarian it was over 100 µM; with HCT-116 colon it was over 100 µM; in the experiment with LOX IMVI melanoma, over 100 µM; in the experiment with OVCAR-5 ovarian, over 100 µM. In addition, the TGI in the experiment on NCI-H460 lung, in the experiment on COLO 205 colon, in the experiment with MALME-3M melanoma, in the experiment with OVCAR-3 ovarian, in the experiment on SK-OV-3 ovarian and with T-47D breast was over 100 µM each time. Further, the TGI in the experiment with U251 CNS and in the experiment with HOP-62 NSCLC was over 100 µM each time.
